Source: patent US4960883A, “Piperazines and homopiperazines” (Kowa Company, Ltd., priority 1988, dated 1990)

System: Rabbit PRP, ADP-induced platelet aggregation
Test: Inhibitory effect on ADP-induced platelet aggregation
Assay type: cell-based
Conditions: ADP (2 μm); for Platelet aggregation inhibitory concentration: concentration at which the inhibition rate (%) in parentheses was found
Method: (B) Inhibitory effect on ADP-induced platelet aggregation
Rabbit PRP (250 μl) was preincubated with drug samples ([…]) of aqueous solution or 1 µl of DMSO solution) at 37° C. for 1 minute, and ADP (2 μm)-induced platelet aggregation was measured by aggregometer (NKK HEMA TRACERl Model PAT-4M). Inhibitory effects of the drugs were estimated from the standard curve of maximal aggregation.

Row | SMILES | Platelet aggregation inhibition rate (%) in the parentheses (at 10^-5 mole/liter) | Platelet aggregation inhibitory concentration | Platelet aggregation inhibition rate (%) in the parentheses (at 10^-4 mole/liter)
1 | COc1ccc(S(=O)(=O)N2CCN(CC(COCC(C)C)N(C)Cc3ccccc3)CC2)cc1OC (stereo not drawn) [Example 1, 1-(3,4-dimethoxybenzenesulfonyl)-4-(3-isobutoxy-2-methylbenzylaminopropyl)-piperazine] | 12% | 10^-5 mole/liter | 
2 | CC(C)COCC(CN1CCCN(S(=O)(=O)c2ccccc2)CC1)N(C)Cc1ccccc1 (stereo not drawn) [Example 2, 1-benzenesulfonyl-4-(3-isobutoxy-2-methylbenzylaminopropyl)homopiperazine] |  | 10^-4 mole/liter | 60%
3 | CC(C)COCC(CN1CCN(C(=O)CCO[N+](=O)[O-])CC1)N(C)Cc1ccccc1 (stereo not drawn) [Example 7] |  | 10^-4 mole/liter | 33%
4 | CC(C)COCC(CN1CCN(S(=O)(=O)c2cccc3c(Cl)cccc23)CC1)N(C)Cc1ccccc1 (stereo not drawn) [Example 9] | 8% | 10^-5 mole/liter | 
5 | CC(C)COCC(CN1CCN(S(C)(=O)=O)CC1)N(C)Cc1ccccc1 (stereo not drawn) [Example 10] |  | 10^-4 mole/liter | 35%
6 | CC(C)COCC(CN1CCN(S(=O)(=O)c2ccccc2)CC1)N(C)Cc1ccccc1 (stereo not drawn) [Example 11] |  | 10^-4 mole/liter | 33%
